Source: article PMC9026280, “Reverse Electron Transfer by Respiratory Complex I Catalyzed in a Modular Proteoliposome System” (Journal of the American Chemical Society, 2022)

Experiments:
Assay type in all cases: biochemical
P. pastoris complex I [1] = biological target: T1, P. pastoris complex I (Komagataella pastoris, UniProt E1UWA8+E1UWB5+E1UWC2); test: NADH:O2 oxidoreduction (FET) in CI proteoliposomes with AOX, spectrophotometric; settings: membrane Q10 concentration; 200 μM NADH, pH 7.5, 32 °C
T1 construct: gene nucm; native complex purified from P. pastoris, whole multi-subunit enzyme, reconstituted in proteoliposomes with E. coli F1FO ATP synthase; with NADH dehydrogenase [ubiquinone] flavoprotein 1, mitochondrial (51 kDa subunit)

[2] = biological target: T2, Complex I from Y. lipolytica (Yarrowia lipolytica, UniProt Q9B6E8+Q9UUT7+Q9UUU1+Q9UUU2); test: as above; settings: 200 μM NADH
T2 construct: gene nubm; complex purified from Y. lipolytica, whole multi-subunit enzyme, reconstituted in proteoliposomes with E. coli F1FO ATP synthase

[3] = biological target: T3, complex I from mouse heart (Mus musculus) (Mus musculus, UniProt P03888+Q91WD5+Q91YT0+Q9DC70); test: NAD+ reduction by RET in CI-F1FO proteoliposomes with GlpD, spectrophotometric; settings: Δp-linked RET; 1 mM NAD+, ATP, rac-G3P, β-CD, pH 7.5, 32 °C
T3 construct: gene Ndufv1; native complex purified from mouse heart, whole multi-subunit enzyme, reconstituted in proteoliposomes with E. coli F1FO ATP synthase

[4] = biological target: T4, complex I from B. taurus (bovine complex I) (Bos taurus, UniProt P03887+P17694+P25708+P42026); test: NADH:O2 oxidoreduction (FET) in CI proteoliposomes with AOX, spectrophotometric
T4 construct: gene NDUFS2; AOX or GlpD added; with NADH dehydrogenase [ubiquinone] flavoprotein 2, mitochondrial; NADH-ubiquinone oxidoreductase 75 kDa subunit, mitochondrial; NADH dehydrogenase [ubiquinone] iron-sulfur protein 3, mitochondrial; NADH dehydrogenase [ubiquinone] iron-sulfur protein 8, mitochondrial; NADH-ubiquinone oxidoreductase chain 2; NADH-ubiquinone oxidoreductase chain 3; NADH-ubiquinone oxidoreductase chain 4; NADH-ubiquinone oxidoreductase chain 4L; NADH-ubiquinone oxidoreductase chain 5; NADH-ubiquinone oxidoreductase chain 6

P. pastoris complex I [5] = biological target: T1, P. pastoris complex I; test: NAD+ reduction by RET in CI-F1FO proteoliposomes with GlpD, spectrophotometric; settings: membrane concentration, Δp-linked, ATP, rac-G3P, β-CD, preheated 37 °C 15 min, assay pH 7.5, 32 °C
[6] = biological target: T3, complex I from mouse heart (Mus musculus); test: NADH:O2 oxidoreduction (FET) in CI proteoliposomes with AOX, spectrophotometric; settings: 200 μM NADH, membrane Q10, pH 7.5, 32 °C

COC1=C(OC)C(=O)C(C/C=C(\C)CC/C=C(\C)CC/C=C(\C)CC/C=C(\C)CC/C=C(\C)CC/C=C(\C)CC/C=C(\C)CC/C=C(\C)CC/C=C(\C)CCC=C(C)C)=C(C)C1=O [Q10]
KM (Q10) (P. pastoris complex I [1]): The KM values for both Q10 and Q10H2 were both lower for P. pastoris
NADH:O2 oxidoreduction (FET) in CI proteoliposomes with AOX, spectrophotometric ([2]; membrane Q10 as acceptor, pH 7.5, 32 °C): Complex I from Y. lipolytica consistently showed remarkably high rates of NADH oxidation in proteoliposomes

NC(=O)c1ccc[n+]([C@@H]2O[C@H](COP(=O)(O)OP(=O)(O)OC[C@H]3O[C@@H](n4cnc5c(N)ncnc54)[C@H](O)[C@@H]3O)[C@@H](O)[C@H]2O)c1 [NAD^+]
NAD+ reduction by RET in CI-F1FO proteoliposomes with GlpD, spectrophotometric [3]: by Δp-linked NAD^+ reduction (Figure 6B), that mouse complex I is capable of RET

C/C=C(\C)[C@H](O)[C@H](C)/C=C(C)/C=C/C/C(C)=C/Cc1nc(OC)c(OC)c(O)c1C [piericidin A]
IC50 [4]: 7.8 ± 0.1 nM

COc1c(O)c(C)c(C/C=C(\C)CC/C=C(\C)CC/C=C(\C)CC/C=C(\C)CC/C=C(\C)CC/C=C(\C)CC/C=C(\C)CC/C=C(\C)CC/C=C(\C)CCC=C(C)C)c(O)c1OC [Q10H2]
KM (Q10H2) (P. pastoris complex I [5]): the KM for Q10H2 was again significantly higher than for Q10

NC(=O)C1=CN([C@@H]2O[C@H](COP(=O)(O)OP(=O)(O)OC[C@H]3O[C@@H](n4cnc5c(N)ncnc54)[C@H](O)[C@@H]3O)[C@@H](O)[C@H]2O)C=CC1 [NADH]
NADH:O2 oxidoreduction (FET) in CI proteoliposomes with AOX, spectrophotometric ([2]; membrane Q10, pH 7.5, 32 °C): Complex I from Y. lipolytica consistently showed remarkably high rates of NADH oxidation in proteoliposomes
NADH:O2 oxidoreduction (FET) in CI proteoliposomes with AOX, spectrophotometric [6]: Representative FET activities for proteoliposomes containing complex I from B. taurus (Bt), M. musculus (Mm)
